Measured values from ChEMBL document CHEMBL1201862, “PubChem BioAssay data set” (2004).
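Exposure lasted 48 hours, with cells grown in 96-well plates and compounds tested at five concentrations. GI50 marks 50% less growth.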 Active and inactive are the calls of the source. No stated cut-off is given here; in the data, active = GI50 up to about 1.1 µM and inactive = higher.

Assays:
Experiment in all cases: DTP human tumour cell line panel, 48 h
MDA-N = test system: MDA-N
MCF7 = test system: MCF7
CAKI-1 = test system: CAKI-1
TK-10 = test system: TK-10
RPMI-8226 = test system: RPMI-8226
K562 = test system: K562
BT-549 = test system: BT-549
NCI-H460 = test system: NCI-H460
HCT-15 = test system: HCT-15
A549 = test system: A549
OVCAR-3 = test system: OVCAR-3
OVCAR-5 = test system: OVCAR-5
LOX IMVI = test system: LOX IMVI
DU-145 = test system: DU-145
OVCAR-4 = test system: OVCAR-4
NCI-H226 = test system: NCI-H226
MOLT-4 = test system: MOLT-4
U-251 = test system: U-251
OVCAR-8 = test system: OVCAR-8
RXF 393 = test system: RXF 393

Row | Structure (SMILES) | GI50 (MDA-N) | GI50 (MCF7) | GI50 (CAKI-1) | GI50 (TK-10) | GI50 (RPMI-8226) | GI50 (K562) | GI50 (BT-549) | GI50 (NCI-H460) | GI50 (HCT-15) | GI50 (A549) | GI50 (OVCAR-3) | GI50 (OVCAR-5) | GI50 (LOX IMVI) | GI50 (DU-145) | GI50 (OVCAR-4) | GI50 (NCI-H226) | GI50 (MOLT-4) | GI50 (U-251) | GI50 (OVCAR-8) | GI50 (RXF 393)
1 | CC1=CCCC(C)(O)C2CC(CCC3(C)OC3CC1)C(C)C(=O)O2 (centres undefined) | > 100 µM (inactive) | > 100 µM (inactive) | > 100 µM (inactive) | > 100 µM (inactive) | > 100 µM (inactive) | > 100 µM (inactive) | > 100 µM (inactive) | > 100 µM (inactive) | > 100 µM | > 100 µM (inactive) | > 100 µM (inactive) | > 100 µM (inactive) | > 100 µM (inactive) | > 100 µM (inactive) | > 100 µM (inactive) | > 100 µM (inactive) | 43.7 µM (inactive) | > 100 µM (inactive) | > 100 µM (inactive) | 
2 | CC(C)(O)CO/N=C1\C(=C2\C(=O)Nc3ccccc32)Nc2ccccc21 | 12.2 µM (inactive) | 1.39 µM (inactive) | 0.112 µM (active) | 0.601 µM (active) | 1.97 µM (inactive) | 5.86 µM (inactive) | 1.82 µM (inactive) | 0.395 µM (active) | 0.324 µM | 0.724 µM (active) | 1.32 µM (inactive) | 2.61 µM (inactive) | 0.583 µM (active) | 0.476 µM (active) | 2.94 µM (inactive) |  | 0.944 µM (active) | 2.38 µM (inactive) | 1.15 µM (inactive) | 0.279 µM (active)
3 | COc1cccc(-c2cc(O)c3c(C)ccnc3n2)c1 | < 0.01 µM (active) | 0.0741 µM (active) |  | > 100 µM (inactive) | 0.0327 µM (active) | < 0.0113 µM (active) | 21.2 µM (inactive) | 0.0395 µM (active) | 0.0486 µM | 0.0518 µM (active) | 0.0186 µM (active) | 0.0748 µM (active) | 0.0625 µM (active) | 0.0471 µM (active) | 18 µM (inactive) | 0.0272 µM (active) | 0.0407 µM (active) | 0.036 µM (active) | 0.0646 µM (active) | 0.0284 µM (active)
4 | CN(C)CCNC(=O)c1ccc2nc3c(nc2c1)C(=O)c1ccccc1-3 | 18.2 µM (inactive) | 27.9 µM (inactive) | > 100 µM (inactive) | > 100 µM (inactive) | 26.1 µM (inactive) |  | 21.7 µM (inactive) | 18.5 µM (inactive) | 31.4 µM | > 100 µM (inactive) | 55 µM (inactive) | > 100 µM (inactive) | 29.9 µM (inactive) | > 100 µM (inactive) | 32.8 µM (inactive) |  | 12.9 µM (inactive) | 24.2 µM (inactive) | 36.5 µM (inactive) | 85.5 µM (inactive)
5 | N=C(N)C1CN(CCc2c[nH]cn2)C(=O)NC1=O (centres undefined) | > 100 µM (inactive) | > 100 µM (inactive) | > 100 µM (inactive) | > 100 µM (inactive) | > 100 µM (inactive) |  | > 100 µM (inactive) | > 100 µM (inactive) | > 100 µM | > 100 µM (inactive) | > 100 µM (inactive) | > 100 µM (inactive) |  | > 100 µM (inactive) | > 100 µM (inactive) |  | > 100 µM (inactive) | > 100 µM (inactive) | > 100 µM (inactive) | > 100 µM (inactive)
6 | CCCc1ccc(OCC(=O)N/N=C/c2c(-c3ccccc3)[nH]c3ccccc23)cc1 |  | 4.57 µM (inactive) | 21.1 µM (inactive) | 17.1 µM (inactive) | 5.48 µM (inactive) | 3.99 µM (inactive) | 13.8 µM (inactive) | 4 µM (inactive) | 4.99 µM | 8.17 µM (inactive) | 24.5 µM (inactive) | 22.4 µM (inactive) | 9.38 µM (inactive) | 21.5 µM (inactive) | 8.32 µM (inactive) | 17.3 µM (inactive) | 5.01 µM (inactive) | 6.19 µM (inactive) | 9.08 µM (inactive) | 11.1 µM (inactive)
7 | CCCCCN1C(=O)C(Cc2ccccc2)N=C(c2ccc(O)cc2)c2cc(Cl)ccc21 (centres undefined) | > 21.2 µM (inactive) | 9.98 µM (inactive) | 13.8 µM (inactive) | 12.9 µM (inactive) | 2.9 µM (inactive) | 3.23 µM (inactive) | 17.4 µM (inactive) | 7.73 µM (inactive) | 7.67 µM | 13.6 µM (inactive) | 17.3 µM (inactive) | 22.3 µM (inactive) | 6.56 µM (inactive) | 15.8 µM (inactive) | 7.73 µM (inactive) | 7.43 µM (inactive) | 4.09 µM (inactive) | 9.35 µM (inactive) | 8.87 µM (inactive) | 
8 | Cc1cc(S(=O)(=O)O)ccc1/N=N/c1c(O)ccc2ccccc12 | > 100 µM (inactive) |  | > 100 µM (inactive) | > 100 µM (inactive) | > 100 µM (inactive) | > 100 µM (inactive) | > 100 µM (inactive) |  | > 100 µM | > 100 µM (inactive) | > 100 µM (inactive) | > 100 µM (inactive) |  | > 100 µM (inactive) | > 100 µM (inactive) | > 100 µM (inactive) | > 100 µM (inactive) | > 100 µM (inactive) | > 100 µM (inactive) | > 100 µM (inactive)
9 | COC(=O)C1=C(C)NC2(O)C=CC(=O)C3C(=O)N(c4ccccc4)C(=O)C132 (centres undefined) |  | > 100 µM (inactive) | > 100 µM (inactive) | > 100 µM (inactive) | 36.2 µM (inactive) | 48.2 µM (inactive) | 64.1 µM (inactive) | > 100 µM (inactive) | 63 µM | > 100 µM (inactive) | 66.1 µM (inactive) | 61.2 µM (inactive) | 67.3 µM (inactive) | > 100 µM (inactive) | > 100 µM (inactive) | > 100 µM (inactive) | 90.6 µM (inactive) | > 100 µM (inactive) | > 100 µM (inactive) | 83.4 µM (inactive)
10 | Cc1nn(C(=O)Cc2ccccc2)c2c1C(c1ccc(/C=C/c3ccccc3)cc1)SC(=N)N2 (centres undefined) | > 100 µM (inactive) | > 100 µM (inactive) | > 100 µM (inactive) | > 100 µM (inactive) | > 100 µM (inactive) | > 100 µM (inactive) | > 100 µM (inactive) | > 100 µM (inactive) | > 100 µM | > 100 µM (inactive) |  |  | > 100 µM (inactive) | > 100 µM (inactive) |  | > 100 µM (inactive) | > 100 µM (inactive) |  | > 100 µM (inactive) | 
11 | C=C1CC(Cn2ccc(=O)[nH]c2=O)(c2ccc(Cl)cc2)OC1=O (centres undefined) | 4.58 µM (inactive) | 1.87 µM (inactive) | 2.42 µM (inactive) | 1.57 µM (inactive) | 1.28 µM (inactive) | 0.631 µM (active) | 4.1 µM (inactive) | 9.53 µM (inactive) | 2.45 µM | 16.9 µM (inactive) | 7.1 µM (inactive) | 15.7 µM (inactive) | 2.14 µM (inactive) | 9.53 µM (inactive) | 1.88 µM (inactive) | 22.9 µM (inactive) | 1.78 µM (inactive) | 17.7 µM (inactive) | 7.87 µM (inactive) | 
12 | CC(=O)c1cc2c(s1)C(=O)c1sccc1C2=O |  | 0.0301 µM (active) | 0.212 µM (active) | 0.212 µM (active) | 0.0392 µM (active) | 0.018 µM (active) | 0.0184 µM (active) | 0.0908 µM (active) | 0.0214 µM | 0.207 µM (active) | < 0.014 µM (active) | 0.0664 µM (active) | 0.0102 µM (active) | 0.0553 µM (active) | 0.0706 µM (active) | 0.198 µM (active) | 0.0486 µM (active) | 0.017 µM (active) | 0.0738 µM (active) | 0.0254 µM (active)
13 | C[N+](C)(C)c1nc(N)nc2c1ncn2C1OC(CO)C(O)C1O (centres undefined) | > 100 µM (inactive) | > 100 µM (inactive) | > 100 µM (inactive) | > 100 µM (inactive) | > 100 µM (inactive) | > 100 µM (inactive) | > 100 µM (inactive) | > 100 µM (inactive) | > 100 µM | > 100 µM (inactive) | > 100 µM (inactive) | > 100 µM (inactive) | > 100 µM (inactive) | > 100 µM (inactive) | > 100 µM (inactive) |  | > 100 µM (inactive) | > 100 µM (inactive) | > 100 µM (inactive) | > 100 µM (inactive)
14 | CCCCCC#CCOC(=O)C(=[N+]=[N-])P(=O)(c1ccccc1)c1ccccc1 | > 10 µM (inactive) | > 10 µM (inactive) |  | > 10 µM (inactive) | 9.84 µM (inactive) | > 10 µM (inactive) | > 10 µM (inactive) | > 10 µM (inactive) | > 10 µM | > 10 µM (inactive) | > 10 µM (inactive) | > 10 µM (inactive) | > 10 µM (inactive) | > 10 µM (inactive) |  | > 10 µM (inactive) | > 10 µM (inactive) | > 10 µM (inactive) | > 10 µM (inactive) | > 10 µM (inactive)
15 | Cc1cccc(C[C@@]2(SCc3ccccc3)C(C)(C)[C@@H]3CC[C@@]2(C)C3)n1 | 24.5 µM (inactive) | 13.9 µM (inactive) | 16.7 µM (inactive) | 17.6 µM (inactive) | 11.8 µM (inactive) | 13.1 µM (inactive) | 20 µM (inactive) | 15.6 µM (inactive) | 13.8 µM | 21.9 µM (inactive) | 15.6 µM (inactive) | 18 µM (inactive) | 16.6 µM (inactive) | 16.9 µM (inactive) |  |  | 12.6 µM (inactive) | 16.6 µM (inactive) | 16.5 µM (inactive) | 16.3 µM (inactive)
